The source of these data is patent EP4692094A1 (Beijing Konruns Pharmaceutical Co., Ltd., priority 2023, dated 2024).

The target in one data set is T1, KAT7 (Homo sapiens, UniProt O95251).
T1 construct: purchased ICE S02210F-H21HF
The data set is described as follows: Enzymatic activity assay for KAT7 acetyltransferase (TR-FRET, histone substrate H4). It counts as biochemical. The following applies: KAT7 15 nM, H4 300 nM, AcCOA 2 µM. Here is the method:
The acetylation effects of KAT6B on histone substrate H3, as well as KAT5, KAT7, and KAT8 on histone substrate H4, were determined using the TR-FRET (time-resolved fluorescence resonance energy transfer) method. The determination was performed according to experimental procedures similar to those in "Pharmacological Experiment I": 1.2 Preparation of compounds: The compounds prepared in the examples were each dissolved in dimethylsulfoxide to give solutions at a concentration of 10 mmol/L. • 1) The compounds in the examples were each diluted from 10 mmol/L stock solution to 0.2 mmol/L, i.e., 1 µL of the compound was added to 49 µL of DMSO, and 3-fold dilution was performed to give 10 concentrations. • 2) 50 nL of the test compounds were transferred to 384 reaction plates using Echo, two replicates for each compound, and the plates were centrifuged at a rotation speed of 1000 rpm for 1 min, the final concentration of dimethylsulfoxide (DMSO) being 0.5%.
For KAT7: • 3) 2.5 µL of the KAT7 enzyme solution at a final concentration of 15 nM was added to the 384 reaction plates in step 2), and the plates were centrifuged at 1000 rpm for 1 min and incubated at 25 °C for 10 min. • 4) 2.5 µL of H4 at a final concentration of 300 nM and an AcCOA (acetyl-CoA) reaction solution at a final concentration of 2 µM were added to the 384 reaction plates in step 3), and the plates were centrifuged at a rotation speed of 1000 rpm for 1 min and incubated at 25 °C for 90 min.
For KAT8: • 3) 2.5 µL of the KAT8 enzyme solution at a final concentration of 10 nM was added to the 384 reaction plates in step 2), and the plates were centrifuged at 1000 rpm for 1 min and incubated at 25 °C for 10 min. • 4) 2.5 µL of […] at a final concentration of 300 nM and an AcCOA (acetyl-CoA) reaction solution at a final concentration of 2 µM were added to the 384 reaction plates in step 3), and the plates were centrifuged at a rotation speed of 1000 rpm for 1 min and incubated at 25 °C for 90 min. • 5) 5 µL of Eu-Ab& Ulight-SA detection solution was separately added to the 384 reaction plates in step 4) of the 4 groups described above, and the plates were centrifuged at 1000 rpm for 1 min and incubated at 25 °C for 60 min. • 6) The HTRF […] signals were read using a BMG high-throughput drug-screening multi-mode microplate reader.
The acetylation levels of the histones in the groups were analyzed by the GraphPad Prism 8 software. The reading of the negative control (0.5% DMSO wells) was set as 0% inhibition rate, and the reading of the positive control (wells with the highest concentration of the control compound) was set as 100% inhibition rate. The inhibition rates were calculated, and then IC50 values (half maximal inhibitory concentration) of test compounds were obtained by using a software nonlinear fitting formula; [formula]
Datapositive control: mean of positive control well values; Datanegative control: mean of negative control well values. Table 5. Enzymatic inhibitory activity of example compounds
Background: In TR-FRET formats the signal depends on donor and acceptor labels being close together.

Another data set addresses T2, CYP2C19 (Homo sapiens, UniProt P33261).
T2 construct: from tissue; host or cells: human liver microsomes
The data set is described as follows: Inhibitory effect on P450 enzymes in vitro (human liver microsomes), CYP2C19. The format is in vitro ADME. To be noted: probe mephenytoin, final concentration 10 µM, substrate mephenytoin, read-out: % inhibition rate CYP2C19 (mephenytoin). The procedure: (§1) 1.1 Preparation of compounds: The compounds prepared in the examples were each dissolved in dimethylsulfoxide to give solutions at a concentration of 2 mmol/L.
(§2) 1.2 Test methods: • 1) Incubation system: human liver microsomes, a MgCl2 solution, a phosphate buffer solution, and a substrate solution were each added a 96-well deep-well plate and mixed homogenously. In the final incubation system, the concentration of the human liver microsomes was 0.2 mg/mL, and the final concentrations of the MgCl2 solution and the phosphate buffer solution were 5 mM and 100 mM, respectively. • 2) 1 µL of the substrate solution was added to the incubation system, and the final concentrations of CYP1A2 phenacetin, 2C8 paclitaxel […], 2C19 mephenytoin, 2D6 midazolam, and 3A midazolam substrates were 40 µM (phenacetin), 5 µM (paclitaxel), 50 µM (mephenytoin), 10 µM (mephenytoin), 5 µM (midazolam), and 50 µM […], respectively. • 3) 1 µL of the example compound or vehicle (DMSO) was added to the incubation system, and the incubation system was pre-warmed for 5 min in a 37 °C water bath before starting the reaction with 20 µL of 10 mM NADPH solution.
(§3) 1.3 Sample treatment: Within the designated time (20 min for phenacetin, 10 min for paclitaxel, 20 min for mephenytoin, 20 min for dextromethorphan, 5 min for midazolam, and 10 min for testosterone), 400 µL of methanol containing the internal standard was added to terminate the reaction, and the mixture was vortexed and mixed homogeneously. Then, the deep-well plate was centrifuged at 3220 g and 4 °C for 40 min. 100 µL of the supernatant was transferred into a new plate, and 150 µL of purified water was added. The mixture was mixed homogenously for LC-MS/MS analysis. Table 11. Inhibitory effects of some compounds in the examples on CYP enzymes

The target of the next data set is T3, CYP2C8 (Homo sapiens, UniProt P10632).
T3 construct: from tissue; host or cells: human liver microsomes
T3 sequence (P10632 1-490): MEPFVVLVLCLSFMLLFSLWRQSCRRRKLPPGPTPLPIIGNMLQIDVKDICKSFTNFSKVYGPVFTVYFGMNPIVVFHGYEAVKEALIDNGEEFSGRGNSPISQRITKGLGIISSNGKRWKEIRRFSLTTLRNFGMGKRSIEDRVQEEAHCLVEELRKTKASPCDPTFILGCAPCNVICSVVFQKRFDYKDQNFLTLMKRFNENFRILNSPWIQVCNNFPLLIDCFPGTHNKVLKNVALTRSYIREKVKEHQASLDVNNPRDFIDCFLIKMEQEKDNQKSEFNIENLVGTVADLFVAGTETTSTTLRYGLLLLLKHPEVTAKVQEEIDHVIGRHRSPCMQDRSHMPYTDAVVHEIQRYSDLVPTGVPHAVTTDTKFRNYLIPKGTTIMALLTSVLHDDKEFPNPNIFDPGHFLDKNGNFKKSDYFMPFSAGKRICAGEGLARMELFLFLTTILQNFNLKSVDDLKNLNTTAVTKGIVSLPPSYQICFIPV
The data set is described as follows: Inhibitory effect on P450 enzymes in vitro (human liver microsomes), CYP2C8. It counts as in vitro ADME. The following applies: probe paclitaxel, final concentration 10 µM, substrate paclitaxel, read-out: % inhibition rate CYP2C8 (paclitaxel). The procedure: as §1, §2, §3

T1 sequence (O95251 whole entry): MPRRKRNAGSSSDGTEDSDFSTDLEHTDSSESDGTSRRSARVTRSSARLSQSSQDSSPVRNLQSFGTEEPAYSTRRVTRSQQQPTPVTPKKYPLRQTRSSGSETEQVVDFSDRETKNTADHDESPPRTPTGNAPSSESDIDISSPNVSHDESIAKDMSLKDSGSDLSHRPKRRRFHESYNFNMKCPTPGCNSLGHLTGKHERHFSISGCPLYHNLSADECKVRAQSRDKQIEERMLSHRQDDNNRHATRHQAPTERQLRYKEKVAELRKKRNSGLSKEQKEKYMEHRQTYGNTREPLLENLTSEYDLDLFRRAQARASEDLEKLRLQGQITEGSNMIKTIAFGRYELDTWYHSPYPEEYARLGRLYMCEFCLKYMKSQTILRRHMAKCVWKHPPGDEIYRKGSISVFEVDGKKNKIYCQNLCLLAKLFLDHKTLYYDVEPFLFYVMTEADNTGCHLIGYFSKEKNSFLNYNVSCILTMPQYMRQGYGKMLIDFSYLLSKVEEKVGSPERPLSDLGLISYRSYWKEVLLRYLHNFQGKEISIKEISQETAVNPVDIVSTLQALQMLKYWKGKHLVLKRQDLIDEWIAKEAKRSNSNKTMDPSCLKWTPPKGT
T2 sequence (P33261 whole entry): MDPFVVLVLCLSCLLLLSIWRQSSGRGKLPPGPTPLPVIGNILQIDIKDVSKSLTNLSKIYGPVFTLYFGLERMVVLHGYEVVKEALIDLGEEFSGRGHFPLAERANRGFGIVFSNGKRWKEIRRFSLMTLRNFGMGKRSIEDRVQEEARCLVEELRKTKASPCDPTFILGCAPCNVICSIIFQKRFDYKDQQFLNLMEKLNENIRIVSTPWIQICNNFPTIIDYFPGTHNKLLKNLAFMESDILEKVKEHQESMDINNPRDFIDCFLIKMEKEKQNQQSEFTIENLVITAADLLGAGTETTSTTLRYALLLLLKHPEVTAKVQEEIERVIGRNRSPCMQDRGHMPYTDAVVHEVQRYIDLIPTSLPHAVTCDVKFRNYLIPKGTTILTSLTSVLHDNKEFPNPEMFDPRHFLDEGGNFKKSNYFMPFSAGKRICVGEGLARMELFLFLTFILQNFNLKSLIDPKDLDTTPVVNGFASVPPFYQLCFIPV

What is called IC50 is the concentration at which inhibition is half-maximal. A low value points to higher potency. As a reminder, the inhibition is how much of the control response was suppressed. `COc1cc2c(cc1S(=O)(=O)Nc1noc3cc(Cn4cccn4)nc(OC)c13)CCCC2` [Example 2, N-(6-((1H-Pyrazol-1-yl)methyl)-4-methoxyisoxazolo[4,5-c]pyridin-3-yl)-3-methoxy-5,6,7,8-tetrahydronaphthalene-2-sulfonamide] displayed an IC50 against KAT7 of 54 nM. Also, on CYP2C19, the inhibition at 20 min, 10 µM was 42.8%. Further, at CYP2C8, the inhibition at 10 min, 10 µM came out at 16.4%.

Regarding `COc1ccc2c(c1S(=O)(=O)Nc1noc3cc(Cn4cccn4)nc(OC)c13)OCC2` [Example 9, N-(6-((1H-Pyrazol-1-yl)methyl)-4-methoxyisoxazolo[4,5-c]pyridin-3-yl)-6-methoxy-2,3-dihydrobenzofuran-7-sulfonamide], the IC50 on KAT7 was found to be 47.5 nM.

As for `COc1ccc2ccoc2c1S(=O)(=O)Nc1noc2cc(Cn3cccn3)nc(OC)c12` [Example 10, N-(6-((1H-Pyrazol-1-yl)methyl)-4-methoxyisoxazolo[4,5-c]pyridin-3-yl)-6-methoxybenzofuran-7-sulfonamide], 7.42 nM corresponded to half-maximal inhibition against KAT7 (IC50). At CYP2C19, the inhibition at 20 min, 10 µM amounted to 9.54%. Further, the inhibition at 10 min, 10 µM on CYP2C8 turned out to be 3.71%.

In turn, `COc1cc2c(cc1S(=O)(=O)Nc1noc3cc(Cn4cccn4)nc(OC)c13)OCC2` [Example 59, N-(6-((1H-Pyrazol-1-yl)methyl)-4-methoxyisoxazolo[4,5-c]pyridin-3-yl)-5-methoxy-2,3-dihydrobenzofuran-6-sulfonamide] registered an IC50 at KAT7 of 27.4 nM. For the same compound, on CYP2C19, the inhibition at 20 min, 10 µM stood at 7.62%. For the same compound, the inhibition at 10 min, 10 µM on CYP2C8 came to 2.08%.

Regarding `COc1cc2c(cc1S(=O)(=O)Nc1noc3cc(Cn4cccn4)nc(OC)c13)CCCO2` [Example 76, N-(6-((1H-Pyrazol-1-yl)methyl)-4-methoxyisoxazolo[4,5-c]pyridin-3-yl)-7-methoxy-3,4-dihydro-1H-benzopyran-6-sulfonamide], at KAT7, half-maximal inhibition (IC50) required 86.6 nM.
